In ChEMBL document CHEMBL1201862, “PubChem BioAssay data set” (2004):
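Values below derive from 48-hour exposures of cells grown in 96-well plates, with endpoints linearly interpolated between the two concentrations bracketing the appropriate inhibition level. At the GI50, growth is halved.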 Calls of active or inactive are those of the source. Cut-off read from the data, not from the text of the source: active = GI50 up to about 1.1 µM and inactive = higher. Where a SMILES comes first, the peptide text is derived from it. [ ]: non-standard residue; d: D form. pGlu = O=C1CC[CH](C(=O)O)N1

Experiments:
Assay in all cases: NCI-60 cell line screen, 48 h
SN12C = tested on: SN12C
OVCAR-3 = tested on: OVCAR-3
A498 = tested on: A498
COLO 205 = tested on: COLO 205
OVCAR-5 = tested on: OVCAR-5
SK-MEL-28 = tested on: SK-MEL-28
ACHN = tested on: ACHN
HCC 2998 = tested on: HCC 2998
MOLT-4 = tested on: MOLT-4
EKVX = tested on: EKVX
NCI/ADR-RES = tested on: NCI/ADR-RES
HT-29 = tested on: HT-29
MCF7 = tested on: MCF7
A549 = tested on: A549
HL-60 = tested on: HL-60
HOP-92 = tested on: HOP-92
Hs-578T = tested on: Hs-578T
SK-MEL-5 = tested on: SK-MEL-5
KM12 = tested on: KM12
OVCAR-4 = tested on: OVCAR-4

Measured: GI50

O=C(c1cccs1)c1nccc2c1cnc1ccccc12
inactive: SN12C > 100 µM | OVCAR-3 > 100 µM | A498 63.8 µM | COLO 205 > 100 µM | OVCAR-5 > 100 µM | SK-MEL-28 > 100 µM | ACHN 38.5 µM | HCC 2998 > 100 µM | MOLT-4 > 100 µM | EKVX > 100 µM | NCI/ADR-RES > 100 µM | HT-29 > 100 µM | MCF7 20.3 µM | A549 > 100 µM | HL-60 > 100 µM | HOP-92 36.6 µM | Hs-578T 94.6 µM | SK-MEL-5 > 100 µM | KM12 > 100 µM | OVCAR-4 > 100 µM

C[C@]12CC[C@@H]3c4ccc(O)cc4CC[C@H]3[C@@H]1CC[C@@H]2OP(=O)(O)O
inactive: SN12C > 100 µM | OVCAR-3 > 100 µM | A498 > 100 µM | COLO 205 > 100 µM | OVCAR-5 > 100 µM | SK-MEL-28 > 100 µM | ACHN > 100 µM | HCC 2998 > 100 µM | MOLT-4 > 100 µM | EKVX > 100 µM | NCI/ADR-RES > 100 µM | HT-29 > 100 µM | MCF7 > 100 µM | A549 > 100 µM | HL-60 > 100 µM | HOP-92 > 100 µM | Hs-578T > 100 µM | SK-MEL-5 > 100 µM | KM12 > 100 µM | OVCAR-4 > 100 µM

CC(NC(=O)C1CCC(=O)N1)C(=O)N1CCCC1C(N)=O (stereo not drawn) ([pGlu]-Ala-Pro-NH2; configuration not given here)
inactive: SN12C > 100 µM | OVCAR-3 > 100 µM | A498 31.5 µM | COLO 205 > 100 µM | OVCAR-5 > 100 µM | SK-MEL-28 > 100 µM | ACHN > 100 µM | HCC 2998 > 100 µM | MOLT-4 > 100 µM | EKVX > 100 µM | NCI/ADR-RES > 100 µM | HT-29 > 100 µM | MCF7 > 100 µM | A549 > 100 µM | HL-60 > 100 µM | HOP-92 > 100 µM | Hs-578T > 100 µM | SK-MEL-5 > 100 µM | KM12 > 100 µM | OVCAR-4 > 100 µM
